The experiment has as its target DNA-PK (Homo sapiens, UniProt P78527). In words: DNA-PK inhibition assay (radiometric, 33P-ATP). It is filed as biochemical. The note with it: 100 μM ATP, competitive tight-binding fit. The procedure, abridged:
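Approx. 6 nM DNA-PK with 10 µg/mL sheared dsDNA, 0.8 mg/mL peptide substrate and 100 µM 33P-ATP in HEPES pH 7.5, 10 mM MgCl2; 45 min, phosphoric acid quench. Phosphopeptide captured on filter plates and counted by scintillation; Ki from a competitive tight-binding model fit.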

A value given as a limit tells only on which side of the number the result lay.

In general, Ki refers to the dissociation constant of the complex between target and ligand, obtained from inhibition or displacement. Read a high Ki as lower affinity.

With `COc1ccccc1[C@H](C)CNc1cc(-c2ccnc(NCCCO)c2)ncn1` [Compound 206], the Ki is < 30 nM. For the molecule `CNC(=O)c1ccnc2c([C@H](C)CNc3cc(-c4cnc(C)nc4)ncn3)ccc(F)c12` [Compound 622], the Ki was < 30 nM.

With `CC(CNc1cc(-c2ccc(N3CCN(C)CC3)nc2)ncn1)c1ccc(F)cc1OC1CC1` (centres unmarked) [Compound 271], the Ki is < 30 nM. The same measure for `CNC(=O)c1ccc([C@H](C)CNc2cc(-c3ccc(C(=O)N4CCN(C)CC4)cc3)ncn2)c(OC)c1` [Compound 309]: < 30 nM. For `CNC(=O)c1ccc(C(C)CNc2cc(-c3ccc(OC4COC4)nc3)ncn2)c(OC)c1` (centres unmarked) [Compound 307], the Ki is < 30 nM.

Take `CNC(=O)c1ccnc2c([C@H](C)CNc3cc(-c4ccc(NCCN5CCCC5=O)nc4)ncn3)cccc12` [Compound 703]: the Ki was < 30 nM. Take `Cc1ccc(-c2cc(NCC(C)c3cccc4nccnc34)ncn2)cn1` (centres unmarked) [Compound 332]: the Ki was < 30 nM. As for `CC(CNc1cc(-c2cnc3[nH]ncc3c2)ncn1)c1ccccc1OC1COC1` (centres unmarked) [Compound 214], the figure is < 30 nM; as for `Cc1ccc(-c2cc(NCC(C)c3ccccc3OCC3CC3)ncn2)cn1` (centres unmarked) [Compound 186], < 30 nM. Consider `CNC(=O)c1ccc([C@H](C)CNc2cc(-c3ccc(N4CC=CCC4)nc3)ncn2)c(OC)c1` [Compound 366], for which the Ki is < 30 nM. On to `CNC(=O)c1ccnc2c([C@H](C)CNc3cc(-c4cnc(CN(C)C)nc4)ncn3)cccc12` [Compound 885], for which the Ki is < 30 nM.

As for `CNC(=O)c1ccnc2c([C@H](C)CNc3cc(-c4ccnc(N5CCOCC5)c4)ncn3)cccc12` [Compound 818], the Ki was < 30 nM.

Take `CCOc1ccccc1[C@H](C)CNc1cc(-c2ccc(C)nc2)ncn1` [Compound 110]: the Ki is < 30 nM. As to `C#CCNc1ccc(-c2cc(NC[C@@H](C)c3ccc(C(=O)NC)cc3OC)ncn2)cn1` [Compound 385], the inhibitory constant (Ki) was < 30 nM. As for `CNC(=O)c1ccc(-c2cc(NC[C@@H](C)c3cccc4c(C(=O)NC)ccnc34)ncn2)cc1` [Compound 754], the Ki was < 30 nM. Take `CC(=O)N1CCOc2c([C@H](C)CNc3cc(-c4ccc(C)nc4)ncn3)cccc21` [Compound 504]: the Ki was < 30 nM. As for `CNC(=O)c1ccnc2c([C@H](C)CNc3cc(-c4ccc(C)nc4)ncn3)ccc(F)c12` [Compound 515], the figure is < 30 nM.

Consider `CNC(=O)c1ccnc2c([C@H](C)CNc3cc(-c4cnc(OC)nc4)ncn3)cccc12` [Compound 606], for which the Ki is < 30 nM.

Turning to `CCOc1ccc(-c2cc(NC[C@@H](C)c3cccc4c(C(=O)NC)ccnc34)ncn2)cn1` [Compound 933], the Ki was < 30 nM. Consider `CNC(=O)c1ccc([C@H](C)CNc2cc(-c3ccc4c(c3)OCC(=O)N4)ncn2)c(OC)c1` [Compound 314], for which the Ki was < 30 nM. With `COc1cscc1C(C)CNc1cc(-c2cnc3c(cnn3CCO)c2)ncn1` (centres unmarked) [Compound 261], the Ki is < 30 nM. With `COc1ccccc1CCNc1cc(-c2ccc(N3CCN(C(C)=O)CC3)nc2)ncn1` [Compound 16], the inhibition constant (Ki) is < 30 nM.

As to `CNC(=O)c1c(F)cnc2c([C@H](C)CNc3cc(-c4cnc5c(c4)COC5)ncn3)cccc12` [Compound 966], the inhibitory constant (Ki) is < 30 nM.

In the case of `CNC(=O)c1ccc([C@H](C)CNc2cc(-c3ccc(NC)nc3)ncn2)c(OC)c1` [Compound 358], the Ki was < 30 nM.

For the molecule `CNC(=O)c1ccnc2c([C@H](C)CNc3cc(-c4ccnc(C)c4)ncn3)cccc12` [Compound 771], the Ki was < 30 nM. As for `CNC(=O)c1c(F)cnc2c([C@H](C)CNc3cc(-c4cnc(CO)c(OC)c4)ncn3)cccc12` [Compound 920], the Ki was < 30 nM. In the case of `CNC(=O)c1c(N(C)C)cnc2c([C@H](C)CNc3cc(-c4ccc(C)nc4)ncn3)cccc12` [Compound 765], the Ki is < 30 nM. The same measure for `CNC(=O)c1ccc(C(C)CNc2cc(-c3cnc4c(ccn4C)c3)ncn2)c(OC)c1` (centres unmarked) [Compound 189]: < 30 nM; for `CC(CNc1cc(-c2cnc3c(cnn3CCO)c2)ncn1)c1ccnc2cccnc12` (centres unmarked) [Compound 400]: < 30 nM. Take `CCOc1cc(-c2cc(NC[C@@H](C)c3cccc4c(C(=O)NC)ccnc34)ncn2)cnc1C` [Compound 875]: the Ki is < 30 nM. For the molecule `CNC(=O)c1ccnc2c([C@H](C)CNc3cc(-c4cnn(C)c4)ncn3)cccc12` [Compound 661], the Ki was < 30 nM.

As to `CNC(=O)c1ccnc2c([C@H](C)CNc3cc(-c4cncc(N)c4)ncn3)cccc12` [Compound 874], the Ki was < 30 nM. For `Cc1ccc(-c2cc(NC[C@@H](C)c3ccccc3O)ncn2)cn1` [Compound 109], the Ki was < 30 nM. On to `CNC(=O)c1ccc([C@H](C)CNc2cc(-c3ccc(N(C)C(C)C4CC4)nc3)ncn2)c(OC)c1` (some centres unmarked) [Compound 341], for which the Ki is < 30 nM. Take `COc1ccsc1C(C)CNc1cc(-c2cnc3c(cnn3C3CCN(C)CC3)c2)ncn1` (centres unmarked) [Compound 262]: the Ki was < 30 nM. As for `CNC(=O)c1ccc(C(C)CNc2cc(-c3ccc(N4CCN(C(C)=O)CC4)nc3)ncn2)c(OC)c1` (centres unmarked) [Compound 130], the inhibition constant Ki is < 30 nM. Regarding `CCOc1cc(F)ccc1[C@H](C)CNc1cc(-c2ccc(C)nc2)ncn1` [Compound 103], the Ki is < 30 nM. Regarding `CNC(=O)c1ccnc2c([C@H](C)CNc3cc(-c4ccc(NCCNCCO)nc4)ncn3)cccc12` [Compound 707], the Ki is < 30 nM. `CCN1CCN(c2ccc(-c3cc(NC[C@@H](C)c4cccc5c(C(=O)NC)ccnc45)ncn3)cn2)CC1=O` [Compound 716]: the Ki is < 30 nM. Consider `CNC(=O)c1ccnc2c([C@H](C)CNc3cc(-c4ccc(N5CCOCC5)cc4)ncn3)cccc12` [Compound 678], for which the Ki is < 30 nM.

Consider `CNC(=O)c1ccc(C(C)CNc2cc(-c3cnc4c(cnn4CC(C)(C)O)c3)ncn2)c(OC)c1` (centres unmarked) [Compound 274], for which the Ki was < 30 nM. Take `CNC(=O)c1ccnc2c([C@H](C)CNc3cc(-c4ccc(C5(N)CC5)nc4)ncn3)ccc(F)c12` [Compound 940]: the Ki was < 30 nM. Turning to `CNC(=O)c1ccnc2c([C@H](C)CNc3cc(-c4ccc5c(c4)CCNC5)ncn3)cccc12` [Compound 802], the Ki was < 30 nM. Consider `Cc1ccc(-c2cc(NC[C@@H](C)c3cncc4c3OCCN4)ncn2)cn1` [Compound 837], for which the Ki is < 30 nM. Take `CNC(=O)c1ccnc2c([C@H](C)CNc3cc(-c4ccc(N5CCCC5)nc4)ncn3)cccc12` [Compound 723]: the Ki was < 30 nM.

With `CNC(=O)c1ccnc2c([C@H](C)CNc3cc(-c4ccnc(C5CC5)c4)ncn3)cccc12` [Compound 911], the Ki is < 30 nM. With `CNC(=O)c1ccnc2c([C@H](C)CNc3cc(-c4ccc5c(c4)CN(C(=O)COC)CC5)ncn3)cccc12` [Compound 834], the Ki was < 30 nM. Consider `COc1sccc1C(C)CNc1cc(-c2cnc3c(cnn3C3CCN(C)CC3)c2)ncn1` (centres unmarked) [Compound 264], for which the inhibition constant Ki is < 30 nM.

For the molecule `CNC(=O)c1ccc([C@H](C)CNc2cc(-c3ccc(NC(CO)CO)nc3)ncn2)c(OC)c1` [Compound 353], the Ki was < 30 nM. As for `CNC(=O)c1ccnc2c([C@H](C)CNc3cc(-c4ccc(OCCN5CCCC5)cc4)ncn3)cccc12` [Compound 727], the Ki is < 30 nM. As to `CNC(=O)c1c(F)cnc2c([C@H](C)CNc3cc(-c4cccs4)ncn3)cccc12` [Compound 689], the inhibition constant Ki is < 30 nM. As for `COCc1ccc(-c2cc(NC[C@@H](C)c3ccnc4c3OCCO4)ncn2)cc1` [Compound 458], the Ki is < 30 nM.

On to `Cc1ncc(-c2cc(NC[C@@H](C)c3cccc4c(=O)n(C)cnc34)ncn2)cn1` [Compound 697], for which the Ki is < 30 nM. For the molecule `CNC(=O)c1ccnc2c([C@H](C)CNc3cc(-c4cnc(N)c(F)c4)ncn3)cccc12` [Compound 867], the Ki is < 30 nM. On to `CNC(=O)c1ccnc2c([C@H](C)CNc3cc(-c4ccc(N5CCOC(C)(C)C5)nc4)ncn3)cccc12` [Compound 733], for which the Ki was < 30 nM. For `CNC(=O)c1ccc([C@H](C)CNc2cc(-c3ccc4c(cnn4C4COC4)c3)ncn2)c(OC)c1` [Compound 243], the Ki is < 30 nM.

With `CNC(=O)c1ccnc2c([C@H](C)CNc3cc(-c4ccc(C#N)c(F)c4)ncn3)cccc12` [Compound 871], the Ki is < 30 nM. Take `CNC(=O)c1ccc(-c2cc(NC[C@@H](C)c3cccc4c(C(=O)NC)ccnc34)ncn2)cc1F` [Compound 807]: the Ki was < 30 nM. As for `COc1ccccc1[C@H](C)CNc1cc(-c2ccc(NC3CCN(C)CC3)nc2)ncn1` [Compound 254], the figure is < 30 nM; as for `CNC(=O)c1ccnc2c([C@H](C)CNc3cc(-c4ccc5c(c4)OCCN5C)ncn3)cccc12` [Compound 843], < 30 nM; as for `CNC(=O)c1ccc(C(C)CNc2cc(-c3ccc4c(cnn4CCO)c3C)ncn2)c(OC)c1` (centres unmarked) [Compound 277], < 30 nM. Regarding `Cc1ccc(-c2cc(NC[C@@H](C)c3cccc4c(C(=O)NCC(F)(F)F)ccnc34)ncn2)cn1` [Compound 546], the inhibition constant Ki is < 30 nM. As for `CNC(=O)c1ccc([C@H](C)CNc2cc(-c3ccc(NC(C)=O)cc3)ncn2)c(OC)c1` [Compound 317], the Ki was < 30 nM.

As to `CNC(=O)c1ccnc2c([C@H](C)CNc3cc(-c4ccc(O)cc4)ncn3)cccc12` [Compound 685], the Ki was < 30 nM. In the case of `CNC(=O)c1ccnc2c([C@H](C)CNc3cc(-c4ccc(N5CCC(C)(O)C5)nc4)ncn3)cccc12` (some centres unmarked) [Compound 732], the Ki is < 30 nM. For `CNC(=O)c1ccnc2c([C@H](C)CNc3cc(-c4cncc(C)c4)ncn3)ccc(F)c12` [Compound 651], the Ki was < 30 nM. `Cc1ccc(-c2cc(NCC(C)c3cccc4nsnc34)ncn2)cn1` (centres unmarked) [Compound 398]: the Ki is < 30 nM.

Consider `CNC(=O)c1ccnc2c([C@H](C)CNc3cc(-c4ccc(N5CCOC(C)C5)nc4)ncn3)cccc12` (single isomer, unassigned) [Compound 713], for which the Ki was < 30 nM.

Source of the values: patent publication US10391095B2, “DNA-PK inhibitors” (Vertex Pharmaceuticals Incorporated, priority 2012, dated 2019).
